Where “and” joins values, the source holds several entries; their conditions need not be identical. Equal values may be shown once. Read-outs that look alike come from different tables or passages of the source.
What was measured:
LLC-PK1 cells [1] = conditions: renal epithelial cell line LLC-PK1; 19 h + 5 h incubation
[2] = system: Renal glomerular mesangial cells; conditions: CM effects only at concentrations greater than 1 and 5 μg/ml
L2 cells [3] = conditions: murine lung cell line L2
LLC-PK1 cells [4] = conditions: renal epithelial cell line LLC-PK1
[5] = system: Renal glomerular mesangial cells; conditions: CM effects only at concentrations greater than 1 and 5 μg/ml; remark: listed apart in the source
L2 cells [6] = conditions: murine lung cell line L2; remark: listed apart in the source
LLC-PK1 cells [7] = conditions: renal epithelial cell line LLC-PK1; CsA: to 1 ng/ml
[8] = system: Renal glomerular mesangial cells; conditions: CsA: to 1 ng/ml, CM effects only at concentrations greater than 1 and 5 μg/ml
L2 cells [9] = conditions: murine lung cell line L2; remark: listed apart in the source
[10] = for Amount of cyclosporine per liter of bile as determined with internal standard: 100 ml bile extracted, analytical gradient HPLC with CsA internal standard; for Mean % of total concentration of cyclosporine (mean value, n = 5): bile of five CsA treated liver transplant individuals
lymphocyte proliferation = conditions: Freed 1987; OL-17 followed by OL-1 and OL-21; cited from earlier work
IL2 production = conditions: Freed 1987; OL-17 followed by OL-1 and OL-21; cited from earlier work
rat = conditions: Ryffel 1988; cited from earlier work
IL1 = assay: Effect on IL1 (method of Freed); format: cell-based; conditions: compared with cyclosporine A
Source text: (§1) The effect of CM Peak H on IL1, IL2 and IL2 receptor activity was studied using the method as described in Freed, B. M., Transplantation 43:123, 1987.

IL2 = assay: Effect on IL2 (method of Freed); format: cell-based; conditions: compared with cyclosporine A
Source text: as §1

IL2 receptors = assay: Effect on IL2 receptor activity (method of Freed); format: cell-based; conditions: compared with cyclosporine A
Source text: as §1

phospholipase A2 = conditions: at concentrations of 1 mg/ml or greater
[11] = CM extracted from bile of liver transplant recipients, relative area by UV spectroscopy

C/C=C/C[C@@H](C)[C@@H](O)[C@H]1C(=O)N[C@@H](CC)C(=O)N(C)CC(=O)N(C)[C@@H](CC(C)C)C(=O)N[C@@H](C(C)C)C(=O)N(C)[C@@H](CC(C)C)C(=O)N[C@@H](C)C(=O)N[C@H](C)C(=O)N(C)[C@@H](CC(C)(C)O)C(=O)N(C)[C@@H](CC(C)C)C(=O)N(C)[C@@H](C(C)C)C(=O)N1C [OL-1, 9-hydroxy cyclosporine A]
Inhibition of DNA synthesis (LLC-PK1 cells [1]): no inhibitory effects | Inhibition of DNA synthesis [2]: some inhibitory effects | Inhibition of DNA synthesis (L2 cells [3]): no inhibitory effects | Inhibition of RNA synthesis (LLC-PK1 cells [4]): no inhibitory effects | Inhibition of RNA synthesis [5]: some inhibitory effects | Inhibition of RNA synthesis (L2 cells [6]): no inhibitory effects | Inhibition of protein synthesis (LLC-PK1 cells [7]): no inhibitory effects | Inhibition of protein synthesis [8]: some inhibitory effects | Inhibition of protein synthesis (L2 cells [9]): no inhibitory effects | Amount of cyclosporine per liter of bile as determined with internal standard [10]: 364 µg/L | Ability to inhibit lymphocyte proliferation in a mixed lymphocyte reaction, compared to CsA (lymphocyte proliferation): comparable effects | Ability to inhibit IL2 production, compared to CsA (IL2 production): comparable effects

CC[C@@H]1NC(=O)[C@H]([C@H](O)[C@H](C)C/C=C/CO)N(C)C(=O)[C@H](C(C)C)N(C)C(=O)[C@H](CC(C)C)N(C)C(=O)[C@H](CC(C)C)N(C)C(=O)[C@@H](C)NC(=O)[C@H](C)NC(=O)[C@H](CC(C)C)N(C)C(=O)[C@H](C(C)C)NC(=O)[C@H](CC(C)C)N(C)C(=O)CN(C)C1=O [OL-17, 1-hydroxy cyclosporine A]
Inhibition of DNA synthesis (LLC-PK1 cells [1]): no inhibitory effects | Inhibition of DNA synthesis [2]: some inhibitory effects | Inhibition of DNA synthesis (L2 cells [3]): no inhibitory effects | Inhibition of RNA synthesis (LLC-PK1 cells [4]): no inhibitory effects | Inhibition of RNA synthesis [5]: some inhibitory effects | Inhibition of RNA synthesis (L2 cells [6]): no inhibitory effects | Inhibition of protein synthesis (LLC-PK1 cells [7]): no inhibitory effects | Inhibition of protein synthesis [8]: some inhibitory effects | Inhibition of protein synthesis (L2 cells [9]): no inhibitory effects | Amount of cyclosporine per liter of bile as determined with internal standard [10]: 853 µg/L | Mean % of total concentration of cyclosporine (mean value, n = 5) [10]: 16.00 ± 4.4% and 16% | Ability to inhibit lymphocyte proliferation in a mixed lymphocyte reaction, compared to CsA (lymphocyte proliferation): comparable effects | Ability to inhibit IL2 production, compared to CsA (IL2 production): comparable effects | Toxicity in vivo (rat): not toxic

C/C=C/C[C@@H](C)[C@@H](O)[C@H]1C(=O)N[C@@H](CC)C(=O)N(C)CC(=O)N(C)[C@@H](CC(C)C)C(=O)N[C@@H](C(C)C)C(=O)N(C)[C@@H](CC(C)C)C(=O)N[C@@H](C)C(=O)N[C@H](C)C(=O)N(C)[C@@H](CC(C)(C)O)C(=O)N[C@@H](CC(C)C)C(=O)N(C)[C@@H](C(C)C)C(=O)N1C [CM Peak H]
Inhibiting formation of, and action of IL1 (IL1): as effective as cyclosporine A | Inhibiting formation of, and action of IL2 (IL2): as effective as cyclosporine A | Inhibiting formation of, and action of IL2 receptors (IL2 receptors): as effective as cyclosporine A | Inhibition of DNA synthesis (LLC-PK1 cells [1]): no inhibitory effects | Inhibition of DNA synthesis [2]: some inhibitory effects | Inhibition of DNA synthesis ([2]; listed as Metabolite H): least inhibitory effects | Inhibition of DNA synthesis (L2 cells [3]): no inhibitory effects | Inhibition of RNA synthesis (LLC-PK1 cells [4]): no inhibitory effects | Inhibition of RNA synthesis [5]: some inhibitory effects | Inhibition of RNA synthesis ([5]; listed as Metabolite H): least inhibitory effects | Inhibition of RNA synthesis (L2 cells [6]): no inhibitory effects | Inhibition of protein synthesis (LLC-PK1 cells [7]): no inhibitory effects | Inhibition of protein synthesis [8]: some inhibitory effects | Inhibition of protein synthesis ([8]; listed as Metabolite H): least inhibitory effects | Inhibition of protein synthesis (L2 cells [9]): no inhibitory effects | Inhibition of phospholipase A2 activity (phospholipase A2): no such inhibitory activity | Amount of cyclosporine per liter of bile as determined with internal standard [10]: 536 µg/L | Amount in RIA profile of bile ([10]; bile, gradient HPLC/polyclonal antibody RIA): above 250 μg/L CsA equivalents | Percentage of total CM ([11]; listed as H): 6.3% | Percentage of total CM ([11]; listed as peak H): 6.33%

CC[C@@H]1NC(=O)[C@H]([C@H](O)[C@H](C)C/C=C/CO)N(C)C(=O)[C@H](C(C)C)N(C)C(=O)[C@H](CC(C)C)N(C)C(=O)[C@H](CC(C)(C)O)N(C)C(=O)[C@@H](C)NC(=O)[C@H](C)NC(=O)[C@H](CC(C)C)N(C)C(=O)[C@H](C(C)C)NC(=O)[C@H](CC(C)C)N(C)C(=O)CN(C)C1=O [OL-8, 1,9 dihydroxy cyclosporine A]
Inhibition of DNA synthesis (LLC-PK1 cells [1]): no inhibitory effects | Inhibition of DNA synthesis [2]: some inhibitory effects | Inhibition of DNA synthesis (L2 cells [3]): no inhibitory effects | Inhibition of RNA synthesis (LLC-PK1 cells [4]): no inhibitory effects | Inhibition of RNA synthesis [5]: some inhibitory effects | Inhibition of RNA synthesis (L2 cells [6]): no inhibitory effects | Inhibition of protein synthesis (LLC-PK1 cells [7]): no inhibitory effects | Inhibition of protein synthesis [8]: some inhibitory effects | Inhibition of protein synthesis (L2 cells [9]): no inhibitory effects | Amount of cyclosporine per liter of bile as determined with internal standard [10]: 640 µg/L | Mean % of total concentration of cyclosporine (mean value, n = 5) [10]: 10.86 ± 2.4% and 11%

From patent publication US5202310A, “Cyclosporine metabolites” (priority 1990, dated 1993)
